pIC50: −log10 of the molar value. Where two headings read alike, the source gives them in different places.

Our source for the IC50 values is patent US12421254B2, “KRAS modulators and uses thereof” (Quanta Therapeutics, Inc., priority 2023, dated 2025).

Test [1] concerns the target GST-tagged KRAS-G12D (2-169) (Homo sapiens, UniProt P01116, G12D). As to the kind of experiment: Nucleotide exchange assay (NEA), SOS-mediated, HTRF, KRAS G12D. The class given is biochemical. As to conditions: IC50 extracted at 30 min, 20 nM SOScat; for IC50: Table 2, read-out: NEA-G12D (uM) IC50; for pIC50: Table 4, read-out: NEA G12D IC50. Put shortly:
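Compound preincubated 1 h at RT with 0.25 nM GST-KRAS-G12D (2-169) and anti-GST Tb donor, then 20 nM SOS1cat (564-1049) and 150 nM GTP-DY-647P1 added; pH 7.3 HEPES buffer with MgCl2 and DTT. HTRF monitored at RT; % inhibition versus DMSO and no-SOS blank, 4-parameter IC50 taken at 30 min.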

The target in test [2] is GST-tagged KRAS-G12V (2-169) (Homo sapiens, UniProt P01116, G12V). As to the kind of experiment: Nucleotide exchange assay (NEA), SOS-mediated, HTRF, KRAS G12V. It counts as biochemical. The note with it: Table 4; IC50 extracted at 90 min; 80 nM SOS. The gist of the method: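 GST-KRAS-G12V (2-169), 0.25 nM, pre-incubated 1 h at RT with compound, then SOS1cat (564-1049) 80 nM and GTP-DY-647P1 150 nM added in HEPES pH 7.3 buffer with MgCl2 and DTT. HTRF via anti-GST Tb cryptate read over 90 min; IC50 from 4-parameter fit at 90 min, blanked to no-SOS reactions.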

The next test addresses T1, KRAS G12D/RAF1 (Homo sapiens, UniProt P01116, G12D).
T1 construct: KRAS (1-169) proteins were expressed in BL21 (DE3)-CodonPlus E. coli; His6-MBP (N, cleaved yes)
As to the kind of experiment: Protein-protein interaction (PPI) HTRF assay KRAS G12D/RAF1. It counts as binding. The note with it: Table 2. On the procedure:
(§1) When RAS proteins are in the active GTP-bound conformation, they bind the effector protein RAF1 at the N-terminus Ras-binding domain (RBD, residues 52-131) (Tran, et al., 2021). Homogenous time resolved fluorescence (HTRF) was used to monitor the interaction between wt or mutant KRAS and RAF1 or wt NRAS and RAF1. Compounds were assayed in the presence of KRAS G12D/V and RAF1 versus wt KRAS to assess activity against mutant and w.t. KRAS. Similarly, compounds were then assayed in the presence of w.t. NRAS and RAF1 to assess RAS isoform selectivity. In all assay formats, His-tagged RAF1 protein was incubated with the HTRF donor, anti-6His Tb Cryptate gold (Cisbio 61DB10RDF), and biotinylated RAS proteins were incubated with the HTRF acceptor, streptavidin-d2 (CisBio 610SADLA). The intensity of the fluorescence signal emitted is proportional to binding between the two proteins. The donor solution was prepared by mixing 16 nM His-tagged RAF1 in protein dilution buffer with 1:100 anti-6His Tb cryptate in PPI-Terbium detection buffer. 16 nM biotinylated RAS protein was diluted into protein dilution buffer (50 mM Tris-HCl pH 7.5, 150 mM NaCl, 0.1 mM MgCl2, 1 mM TCEP, 0.005% Tween20) and mixed with 1:2000 Streptavidin-d2 diluted in PPI-Terbium detection buffer (CisBio 61DB10RDF). 50× compound in DMSO was mixed with 16 nM KRAS-acceptor solution and incubated for 30 minutes at room temperature. After compound pre-incubation with KRAS, the RAF1 donor solution was added to the KRAS-acceptor solution and incubated for 1 hour at room temperature. The fluorescence signal emitted was monitored at 665 nm and 615 nm using an Envision multimode plate reader. The HTRF ratio (665/615) was calculated and normalized to 0% inhibition in the absence of compound and 100% inhibition in the presence of untagged RAF1 protein. PPI KRAS G12D/RAF1, KRAS G12V/RAF1, w.t. KRAS/RAF1 and NRAS/RAF1 IC50 (uM) values of selected compounds are depicted in Table 3 and Table 4 with compounds having a value <0.1 uM as ++++; ≥0.1 uM to 1 uM as +++; ≥1 uM to 10 uM as ++; ≥10 uM to 100 uM as +; and ≥100 uM as NA.
In general terms: TR-FRET usually uses a lanthanide donor and a delayed reading to cut background.

The target of the next test is T2, KRAS G12V/RAF1 (Homo sapiens, UniProt P01116, G12V).
T2 construct: KRAS (1-169) proteins were expressed in BL21 (DE3)-CodonPlus E. coli; His6-MBP (N, cleaved yes)
The test is described as follows: Protein-protein interaction (PPI) HTRF assay KRAS G12V/RAF1. The note with it: Table 3. The class given is binding. As for the experimental part:
as §1

A further test has as its target T3, w.t. KRAS/RAF1 (Homo sapiens, UniProt P01116).
T3 construct: KRAS (1-169) proteins were expressed in BL21 (DE3)-CodonPlus E. coli; His6-MBP (N, cleaved yes)
The test is described as follows: Protein-protein interaction (PPI) HTRF assay w.t. KRAS/RAF1. It counts as binding. The note with it: Table 3; wt KRAS/RAF1. On the procedure:
as §1

The subject of a further test is phospho-ERK in AGS cells. As to the kind of experiment: pERK In Cell Western (ICW) assay (Method B), AGS. It counts as cell-based. As to conditions: Homo sapiens, Table 2, 3 hours. On the procedure:
pERK ICW is a high throughput screening assay to evaluate the cellular potency of mutant KRAS small molecule inhibitors. KRAS mutant cell lines AGS, GP2D (KRAS-G12D) as well as SW620 (KRAS-G12V) were purchased from ATCC and maintained respectively in RPMI/DMEM/RPMI medium supplemented with 10% fetal bovine serum.
Cells grown in exponential phase were trypsinized, resuspended in fresh media, and viable cells were counted using a cell counter with Trypan Blue (BioRad TC20). Cells were seeded into 384-well plate (Greiner 781091) at density of 5,000 cells/well for AGS and 10,000 cells/well for GP2D/SW620 and allowed to grow overnight in a 37° C. CO2 incubator. The next day, compounds were dispensed into wells with a ½ log, 9-point serial dilution using a Tecan D300e dispenser and incubated for 3 hours in a 37° C. CO2 incubator. Cells were then fixed with paraformaldehyde (Electron Microscopy Sciences, 15710, 4% final concentration) for 30 min, permeabilized with wash buffer (1×PBS+0.1% Triton X-100) for 30 min and blocked with Odyssey blocking buffer (Li—COR 927-70001) for 1 hour, all at room temperature (RT). Phospho-ERK antibody (CST 4370L) was diluted 1:500 in Odyssey T20 (PBS) antibody diluent (Li—COR 927-75001) and incubated with cells overnight at 4° C. The next day, plates were washed 5× with wash buffer, incubated with IRDye 800 CW, Goat anti-Rabbit secondary antibody (Li—COR 926-32211, 1:800) and DRAQ5 (CST 4084L, 1:5,000) diluted in Odyssey T20 (PBS) antibody diluent for 1 hour, washed 5×, and imaged on an Odyssey CLx imaging system.
For data analysis, signal intensities from 800 (phosphor-ERK) and 700 (DRAQ5) channels were extracted, and phospho-ERK signals were normalized to DRAQ5 signals for each well and percent of blank control values were computed. Data were then imported into Graphpad Prism to compute half-maximal inhibitory concentrations (IC50) using a 4-parameter variable slope model. Z-factor for each plate was computed from signals derived from wells treated with either DMSO or 5 μM of control compound. AGS pERK ICW (Method B) IC50 (uM) values of selected compounds are depicted in Table 2 with compounds having a value ≥0.001 uM to 0.01 uM as ++++; ≥0.01 uM to 0.1 uM as +++; ≥0.1 uM to 1 uM as ++; ≥1 uM to 10 uM as + and ≥10 uM as NA.

Test [3] relates to phospho-ERK in GP2D (KRAS-G12D) cells. As to the kind of experiment: pERK In Cell Western (ICW) assay (Method B), GP2D. It counts as cell-based. As to conditions: GP2d, 3 h, Table 4. Put shortly: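 SW620 (KRAS-G12V), GP2D (KRAS-G12D) and AGS cells, seeded overnight, were exposed to compounds (½-log, 9-point) for 3 h at 37°C, then fixed and stained for phospho-ERK. Infrared imaging; pERK normalized to DRAQ5 DNA stain, expressed as percent of blank control, IC50 by 4-parameter fit.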

GST-tagged KRAS-G12D (2-169), sequence (P01116 2-169 isoform P01116-2 G12D): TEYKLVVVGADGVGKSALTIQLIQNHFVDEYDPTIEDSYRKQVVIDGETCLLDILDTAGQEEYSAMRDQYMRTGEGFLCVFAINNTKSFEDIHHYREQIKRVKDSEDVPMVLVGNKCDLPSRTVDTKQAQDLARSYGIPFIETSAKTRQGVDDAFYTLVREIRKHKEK
T1 sequence (P01116 with tags, fused parts or gaps isoform P01116-2 G12D): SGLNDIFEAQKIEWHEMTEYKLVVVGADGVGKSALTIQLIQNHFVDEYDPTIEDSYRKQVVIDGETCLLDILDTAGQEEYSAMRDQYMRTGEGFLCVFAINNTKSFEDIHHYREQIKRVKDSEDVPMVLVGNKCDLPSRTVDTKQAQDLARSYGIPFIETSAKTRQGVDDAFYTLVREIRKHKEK
T3 sequence (P01116 with tags, fused parts or gaps isoform P01116-2): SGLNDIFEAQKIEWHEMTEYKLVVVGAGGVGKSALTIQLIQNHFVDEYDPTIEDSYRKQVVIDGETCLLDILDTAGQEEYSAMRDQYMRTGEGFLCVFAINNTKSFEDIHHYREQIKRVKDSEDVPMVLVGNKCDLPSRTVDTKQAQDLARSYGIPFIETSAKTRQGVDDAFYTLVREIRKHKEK
T2 sequence (P01116 with tags, fused parts or gaps isoform P01116-2 G12V): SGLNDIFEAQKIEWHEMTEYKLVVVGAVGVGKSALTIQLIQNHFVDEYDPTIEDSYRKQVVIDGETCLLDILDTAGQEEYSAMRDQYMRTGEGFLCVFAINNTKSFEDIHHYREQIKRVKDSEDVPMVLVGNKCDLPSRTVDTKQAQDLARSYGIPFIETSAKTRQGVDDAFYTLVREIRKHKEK
GST-tagged KRAS-G12V (2-169), sequence (P01116 2-169 isoform P01116-2 G12V): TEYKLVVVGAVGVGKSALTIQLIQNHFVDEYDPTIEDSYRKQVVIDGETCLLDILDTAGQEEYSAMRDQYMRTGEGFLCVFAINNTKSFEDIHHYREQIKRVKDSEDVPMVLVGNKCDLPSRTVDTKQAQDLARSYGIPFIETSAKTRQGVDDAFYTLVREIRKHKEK

For orientation: IC50 means the concentration needed to halve the response being measured. By pIC50 is commonly meant the IC50 on a negative log10 scale, so that one unit is a factor of ten. `N#Cc1c(N)sc2c1C1(CC2)CN(c2nc(OC[C@@]34CCCN3C[C@H](F)C4)nc(N3CC[C@@H](O)[C@@H](O)C3)n2)C1` (racemic) [Compound 22, 2-amino-1′-[4-[rac-(3S,4R)-3,4-dihydroxy-1-piperidyl]-6-[[(2R,8S)-2-fluoro-1,2,3,5,6,7-hexahydropyrrolizin-8-yl]methoxy]-1,3,5-triazin-2-yl]spiro[5,6-dihydrocyclopenta[b]thiophene-4,3′-azetidine]-3-carbonitrile]: the IC50 lay within 0.01 to 0.1 µM in test [1]; 1 to 10 µM at KRAS G12D/RAF1; 10 to 100 µM on KRAS G12V/RAF1; 1 to 10 µM at w.t. KRAS/RAF1; 1 to 10 µM in the test with phospho-ERK in AGS cells. In addition, the pIC50 is 7.00 to 8.00 in test [1], 7.00 to 8.00 in test [2] and 4.70 to 6.00 in test [3].

As to `N#Cc1c(N)sc2c1C1(CC2)CN(c2nc(OC[C@@]34CCCN3C[C@H](F)C4)nc(N3CCCC(C#N)CC3)n2)C1` (stereo partly drawn) [Compound 8, 2-amino-1′-[4-(4-cyanoazepan-1-yl)-6-[[(2R,8S)-2-fluoro-1,2,3,5,6,7-hexahydropyrrolizin-8-yl]methoxy]-1,3,5-triazin-2-yl]spiro[5,6-dihydrocyclopenta[b]thiophene-4,3′-azetidine]-3-carbonitrile], the IC50 in test [1] fell in the range of 0.01 to 0.1 µM; against KRAS G12D/RAF1 it was 1 to 10 µM; on KRAS G12V/RAF1 it was 1 to 10 µM; at w.t. KRAS/RAF1 it was 1 to 10 µM.

For `CN(CC1(C#N)CC1)c1nc(OC[C@@]23CCCN2C[C@H](F)C3)nc(N2CC3(CCc4sc(N)c(C#N)c43)C2)n1` [Compound 15, 2-amino-1′-[4-[(1-cyanocyclopropyl)methyl-methyl-amino]-6-[[(2R,8S)-2-fluoro-1,2,3,5,6,7-hexahydropyrrolizin-8-yl]methoxy]-1,3,5-triazin-2-yl]spiro[5,6-dihydrocyclopenta[b]thiophene-4,3′-azetidine]-3-carbonitrile], the IC50 lay within 0.1 to 1 µM in test [1], 1 to 10 µM against KRAS G12D/RAF1, 1 to 10 µM on KRAS G12V/RAF1 and 1 to 10 µM on w.t. KRAS/RAF1. Also, the values for the pIC50 in test [1] and in test [2] were 6.00 to 7.00 and 7.00 to 8.00, respectively.

As for `N#Cc1c(N)sc2c1C1(CC2)CN(c2nc(OCC3(C#N)CC3)nc(OC[C@@]34CCCN3C[C@H](F)C4)n2)C1` [Compound 16, 2-amino-1′-[4-[(1-cyanocyclopropyl)methoxy]-6-[[(2R,8S)-2-fluoro-1,2,3,5,6,7-hexahydropyrrolizin-8-yl]methoxy]-1,3,5-triazin-2-yl]spiro[5,6-dihydrocyclopenta[b]thiophene-4,3′-azetidine]-3-carbonitrile], the IC50 lay in the range of 0.01 to 0.1 µM in test [1]; 1 to 10 µM at KRAS G12D/RAF1; 1 to 10 µM against KRAS G12V/RAF1; 10 to 100 µM against w.t. KRAS/RAF1; 1 to 10 µM in the test with phospho-ERK in AGS cells. The pIC50 in test [1] was 7.00 to 8.00; in test [2] it was 7.00 to 8.00; in test [3], 4.70 to 6.00.

Take `CC1(CO)CCCN(c2nc(OC[C@@]34CCCN3C[C@H](F)C4)nc(N3CC4(CCc5sc(N)c(C#N)c54)C3)n2)C1` (stereo partly drawn) [Compound 18, 2-amino-1′-[4-[[(2R)-2-fluoro-1,2,3,5,6,7-hexahydropyrrolizin-8-yl]methoxy]-6-[3-(hydroxymethyl)-3-methyl-1-piperidyl]-1,3,5-triazin-2-yl]spiro[5,6-dihydrocyclopenta[b]thiophene-4,3′-azetidine]-3-carbonitrile]: the half-maximal inhibitory concentration (IC50) in test [1] lay in the range of 0.01 to 0.1 µM; on KRAS G12D/RAF1, 1 to 10 µM; at KRAS G12V/RAF1 it was 1 to 10 µM; on w.t. KRAS/RAF1, 1 to 10 µM; in the test with phospho-ERK in AGS cells, 1 to 10 µM. In addition, the pIC50 in test [1] is 7.00 to 8.00; in test [2], 7.00 to 8.00; in test [3], 4.70 to 6.00.

With `CC1(C#N)CCCN(c2nc(OC[C@@]34CCCN3C[C@H](F)C4)nc(N3CC4(CCc5sc(N)c(C#N)c54)C3)n2)C1` (stereo partly drawn) [Compound 19, 2-amino-1′-[4-(3-cyano-3-methyl-1-piperidyl)-6-[[(2R,8S)-2-fluoro-1,2,3,5,6,7-hexahydropyrrolizin-8-yl]methoxy]-1,3,5-triazin-2-yl]spiro[5,6-dihydrocyclopenta[b]thiophene-4,3′-azetidine]-3-carbonitrile], the IC50 in test [1] lay in the range of 0.01 to 0.1 µM; against KRAS G12D/RAF1, 1 to 10 µM; at KRAS G12V/RAF1 it was 1 to 10 µM; against w.t. KRAS/RAF1, 1 to 10 µM; in the test on phospho-ERK in AGS cells it was 0.1 to 1 µM. Besides, the results for the pIC50 in test [1], in test [2] and in test [3] were 7.00 to 8.00, 7.00 to 8.00 and 6.00 to 7.00, respectively.

Turning to `N#Cc1c(N)sc2c1C1(CC2)CN(c2nc(OC[C@@]34CCCN3C[C@H](F)C4)nc(N3CCC[C@@H](CO)C3)n2)C1` [Compound 20, 2-amino-1′-[4-[[(2R,8S)-2-fluoro-1,2,3,5,6,7-hexahydropyrrolizin-8-yl]methoxy]-6-[(3R)-3-(hydroxymethyl)-1-piperidyl]-1,3,5-triazin-2-yl]spiro[5,6-dihydrocyclopenta[b]thiophene-4,3′-azetidine]-3-carbonitrile], the IC50 in test [1] lay within 0.01 to 0.1 µM; against KRAS G12D/RAF1, 10 to 100 µM; against KRAS G12V/RAF1, 10 to 100 µM; with phospho-ERK in AGS cells, 1 to 10 µM. For the same molecule, the pIC50 is 7.00 to 8.00 in test [1], 7.00 to 8.00 in test [2] and 4.70 to 6.00 in test [3].
